Tested on: Endogenous Huntingtin Protein
Test: Endogenous Huntingtin Protein Assay (ELISA-based MSD electrochemiluminescence)
Type: cell-based
Conditions: Table 1
Method in brief: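 Sandwich MSD electrochemiluminescence immunoassay. Capture used MW1 (expanded polyglutamine) or MAB2166 antibody coated at 1 μg/mL overnight at 4 °C. Samples were bound overnight at 4 °C, then a rabbit monoclonal detection antibody and SULFO-TAG anti-rabbit, each at 0.25 μg/mL, were applied for 1 h at room temperature.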

IC50	SMILES
≤ 100 nM	Cc1cn2nc(-c3cc(F)c4nc(C5CCN(C)CC5)sc4c3)ccc2n1 [Compound 92, 6-[4-fluoro-2-(1-methylpiperidin-4-yl)-1,3-benzothiazol-6-yl]-2-methylimidazo[1,2-b]pyridazine]
≤ 100 nM	Cc1nc2c(C)cc(-c3ccc4nc(C5CCNCC5)sc4c3)cc2[nH]1 [Compound 94, 6-(2,4-dimethyl-1H-benzimidazol-6-yl)-2-(piperidin-4-yl)-1,3-benzothiazole]
100 to 500 nM	Cc1nc2ccc(-c3ccc4nc(C5CCNCC5)sc4c3)cc2[nH]1 [Compound 95, 6-(2-methyl-1H-benzimidazol-6-yl)-2-(piperidin-4-yl)-1,3-benzothiazole]
≤ 100 nM	Cc1cn2nc(-c3ccc4nc(C5CCNCC5)sc4c3)ccc2n1 [Compound 97, 2-methyl-6-[2-(piperidin-4-yl)-1,3-benzothiazol-6-yl]imidazo[1,2-b]pyridazine]
1000 to 3000 nM	COc1cc(-c2cc(C)c3nn(C)cc3c2)cc2sc(C3CCNCC3)nc12 [Compound 99, 6-(2,7-dimethyl-2H-indazol-5-yl)-4-methoxy-2-(piperidin-4-yl)-1,3-benzothiazole]
≤ 100 nM	Cn1cc2cc(-c3cc(F)c4nc(C5CCNCC5)sc4c3)cc(CN)c2n1 [Compound 103, 1-{5-[4-fluoro-2-(piperidin-4-yl)-1,3-benzothiazol-6-yl]-2-methyl-2H-indazol-7-yl}methanamine]
≤ 100 nM	Cn1cc2cc(-c3cc(F)c4nc(C5CCNCC5)sc4c3)cc(C#N)c2n1 [Compound 104, 5-[4-fluoro-2-(piperidin-4-yl)-1,3-benzothiazol-6-yl]-2-methyl-2H-indazole-7-carbonitrile]
≤ 100 nM	CCN1CCC(c2nc3c(F)cc(-c4ccc5nc(C)cn5n4)cc3s2)CC1 [Compound 106, 6-[2-(1-ethylpiperidin-4-yl)-4-fluoro-1,3-benzothiazol-6-yl]-2-methylimidazo[1,2-b]pyridazine]
≤ 100 nM	Cc1cn2nc(-c3cc(F)c4nc(C5CCN(C)CC5)sc4c3)cc(C)c2n1 [Compound 107, 6-[4-fluoro-2-(1-methylpiperidin-4-yl)-1,3-benzothiazol-6-yl]-2,8-dimethylimidazo[1,2-b]pyridazine]
100 to 500 nM	Cn1cc2cc(-c3ncc4nc(C5CCNCC5)sc4n3)cc(C#N)c2n1 [Compound 109, 2-methyl-5-[2-(piperidin-4-yl)[1,3]thiazolo[5,4-d]pyrimidin-5-yl]-2H-indazole-7-carbonitrile]
100 to 500 nM	Cc1cc(-c2ncc3nc(C4CCNCC4)sc3n2)cc2cn(C)nc12 [Compound 110, 5-(2,7-dimethyl-2H-indazol-5-yl)-2-(piperidin-4-yl)[1,3]thiazolo[5,4-d]pyrimidine]
100 to 500 nM	Cc1nc2ccc(-c3ccc4nc(C5CCNCC5)sc4c3)cc2o1 [Compound 112, 2-methyl-6-[2-(piperidin-4-yl)-1,3-benzothiazol-6-yl]-1,3-benzoxazole]
≤ 100 nM	Cc1cn2cc(-c3ccc4nc(C5CCNCC5)sc4c3)cc(F)c2n1 [Compound 113, 6-(8-fluoro-2-methylimidazo[1,2-a]pyridin-6-yl)-2-(piperidin-4-yl)-1,3-benzothiazole]
≤ 100 nM	Cc1cn2cc(-c3ccc4nc(C5CCNCC5)sc4c3)cc(C)c2n1 [Compound 114, 6-(2,8-dimethylimidazo[1,2-a]pyridin-6-yl)-2-(piperidin-4-yl)-1,3-benzothiazole]
500 to 1000 nM	Cn1cc2cc(-c3ccc4nc(C5CCNC(C)(C)C5)sc4c3)ccc2n1 (stereo not drawn) [Compound 115, 2-(2,2-dimethylpiperidin-4-yl)-6-(2-methyl-2H-indazol-5-yl)-1,3-benzothiazole]

SMILES	IC50
CN(c1nc2c(F)cc(-c3cc(C#N)c4nn(C)cc4c3)cc2s1)C1CC(C)(C)NC(C)(C)C1 [Compound 91, 5-{4-fluoro-2-[methyl(2,2,6,6-tetramethylpiperidin-4-yl)amino]-1,3-benzothiazol-6-yl}-2-methyl-2H-indazole-7-carbonitrile]	≤ 100 nM
CCc1cc(-c2ccc3nc(N(C)C4CC(C)(C)NC(C)(C)C4)sc3c2)cn2cc(C)nc12 [Compound 93, 6-(8-ethyl-2-methylimidazo[1,2-a]pyridin-6-yl)-N-methyl-N-(2,2,6,6-tetramethylpiperidin-4-yl)-1,3-benzothiazol-2-amine]	100 to 500 nM
Cc1cn2cc(-c3ccc4nc(N(C)C5CC(C)(C)NC(C)(C)C5)sc4c3)cc(C(F)(F)F)c2n1 [Compound 96, N-methyl-6-[2-methyl-8-(trifluoromethyl)imidazo[1,2-a]pyridin-6-yl]-N-(2,2,6,6-tetramethylpiperidin-4-yl)-1,3-benzothiazol-2-amine]	100 to 500 nM
COc1cc(-c2cc(C)c3nn(C)cc3c2)cc2sc(C3=CCNCC3)nc12 [Compound 98, 6-(2,7-dimethyl-2H-indazol-5-yl)-4-methoxy-2-(1,2,3,6-tetrahydropyridin-4-yl)-1,3-benzothiazole]	100 to 500 nM
Cc1cc(-c2cc(O)c3nc(C4=CCNCC4)sc3c2)cc2cn(C)nc12 [Compound 100, 6-(2,7-dimethyl-2H-indazol-5-yl)-2-(1,2,3,6-tetrahydropyridin-4-yl)-1,3-benzothiazol-4-ol]	500 to 1000 nM
Cc1cc(-c2ncc3nc(N(C)C4CC(C)(C)NC(C)(C)C4)sc3c2F)cc2cn(C)nc12 [Compound 101, 6-(2,7-dimethyl-2H-indazol-5-yl)-7-fluoro-N-methyl-N-(2,2,6,6-tetramethylpiperidin-4-yl)[1,3]thiazolo[4,5-c]pyridin-2-amine]	100 to 500 nM
Cn1cc2cc(-c3cc(F)c4nc(C5=CCNCC5)sc4c3)cc(C#N)c2n1 [Compound 102, 5-[4-fluoro-2-(1,2,3,6-tetrahydropyridin-4-yl)-1,3-benzothiazol-6-yl]-2-methyl-2H-indazole-7-carbonitrile]	≤ 100 nM
Cc1cn2cc(-c3cc4sc(N(C)C5CC(C)(C)NC(C)(C)C5)nc4cn3)cnc2n1 [Compound 105, N-methyl-6-(2-methylimidazo[1,2-a]pyrimidin-6-yl)-N-(2,2,6,6-tetramethylpiperidin-4-yl)[1,3]thiazolo[4,5-c]pyridin-2-amine]	100 to 500 nM
Cc1cc(-c2ccc3nc(N(C)C4CCN(C)C(C)C4)sc3c2)cc2cn(C)nc12 (stereo not drawn) [Compound 108, 6-(2,7-dimethyl-2H-indazol-5-yl)-N-(1,2-dimethylpiperidin-4-yl)-N-methyl-1,3-benzothiazol-2-amine]	500 to 1000 nM
Cc1cn2cc(-c3ccc4nc(N(C)C5CC(C)(C)NC(C)(C)C5)sc4c3)cc(F)c2n1 [Compound 111, 6-(8-fluoro-2-methylimidazo[1,2-a]pyridin-6-yl)-N-methyl-N-(2,2,6,6-tetramethylpiperidin-4-yl)-1,3-benzothiazol-2-amine]	≤ 100 nM
Cc1cn2cc(-c3cc4sc(N(C)C5CC(C)(C)NC(C)(C)C5)nc4cn3)cc(C(F)(F)F)c2n1 [Compound 116, N-methyl-6-[2-methyl-8-(trifluoromethyl)imidazo[1,2-a]pyridin-6-yl]-N-(2,2,6,6-tetramethylpiperidin-4-yl)[1,3]thiazolo[4,5-c]pyridin-2-amine]	100 to 500 nM
CN(c1nc2cnc(-c3cc(C#N)c4nn(C)cc4c3)cc2s1)C1CC(C)(C)NC(C)(C)C1 [Compound 117, 2-methyl-5-{2-[methyl(2,2,6,6-tetramethylpiperidin-4-yl)amino][1,3]thiazolo[4,5-c]pyridin-6-yl}-2H-indazole-7-carbonitrile]	≤ 100 nM

Reference: patent US12139499B2, “Heteroaryl compounds for treating Huntington's disease” (PTC THERAPEUTICS, INC., priority 2018, dated 2024)
